Reference: patent US9005677B2, “Autophagy enhancer for treatment of neurodegenerative diseases” (Macau University of Science and Technology, priority 2013, dated 2015)

Key:
[1] = system: EGFP-HDQ74 inclusions in PC12 cells; test: Mutant huntingtin aggregates in PC12, fluorescence microscopy; type: cell-based, rat; settings: immunocytochemistry
Experimental: (§1) Quantification of mutant huntingtin aggregates in PC12, Atg7 wild type and deficient MEFs. In brief, both EGFP-HDQ74 transfected PC12, Atg7 wild-type and deficient mouse embryonic fibroblasts (MEFs) grown on coverslips in a 6-well plate were treated with indicated concentrations of Onjisaponin B. The cells were then fixed in 4% paraformaldehyde for 20 minutes at room temperature and then rinsed with PBS. Slides were mounted with FluorSave™ mounting media (Calbiochem, San Diego, Calif.) and examined by fluorescence microscopy. The number of cells with GFP-aggregates formation was examined under the Nikon ECLIPSE 80i microscope. Representative images were captured with CCD digital camera Spot RT3™ (Diagnostic Instruments, Inc., Melville, N.Y.). To quantify the clearance of mutant huntingtin, the percentage of cells with GFP-aggregates was calculated by counting the number of the cells with punctate GFP-LC3 fluorescence in GFP-positive cells. A minimum of 150 cells from 3 randomly selected fields was scored.

[2] = target: T1, α-synuclein oligomerization in HeLa cells transfected with GNS and SGC (Homo sapiens, UniProt P37840); test: Bimolecular fluorescence complementation (BiFC) assay; type: cell-based; settings: 24 hours at 30° C.
T1 construct: expressed in transfected cells; host or cells: HeLa cells
Experimental: Bimolecular fluorescence complementation (BiFC) assay. In brief, HeLa cells transfected with both GFP-N terminal-α-synuclein (GNS) and α-synuclein-GFP-C terminal (SGC) plasmids were incubated at 37° C. for 4 hours. Then, the transfected cells were incubated with different concentrations of Radix Polygalae ethanol extract or Onjisaponin B for a further 24 hours at 30° C.. Fluorescent signals upon complete GFP fluorophore reconstitution in cells were then detected by flow analysis.
Results: By using the bimolecular fluorescence complementation (BiFC) assay, the oligomerization of α-synuclein in living cells can be directly quantified. In brief, α-synuclein proteins fused with two different non-fluorescent GFP terminal fragments, (i) GFP-N terminal-α-synuclein (GNS) or (ii) α-synuclein-GFP-C terminal (SGC) respectively were used. Upon oligomerization of α-synuclein, the two non-fluorescent fractions of GFP will therefore reconstitute the complete GFP fluorophore and transmit GFP fluorescent signal within cells. This signal in turn can be quantified by flow cytometry analysis.

[3] = system: Atg7-knockout mouse embryonic fibroblasts; test: GFP-LC3 puncta in Atg7 deficient MEFs; type: cell-based
Experimental: Quantification of autophagy GFP-LC3 Puncta in Atg7 wild type and deficient MEFs. GFP-LC3 puncta formation was quantified as described previously. In brief, both Atg7 wild-type and deficient mouse embryonic fibroblasts (MEFs) grown on coverslips in a 6-well plate were treated with indicated concentrations of Onjisaponin B. The cells were then fixed in 4% paraformaldehyde for 20 minutes at room temperature and then rinsed with PBS. Slides were mounted with FluorSave™ mounting media (Calbiochem, San Diego, Calif.) and examined by fluorescence microscopy. The number of GFP-positive cells with GFP-LC3 puncta formation was examined under the Nikon ECLIPSE 80i microscope. Representative images were captured with CCD digital camera Spot RT3™ (Diagnostic Instruments, Inc., Melville, N.Y.). To quantify for autophagy, the percentage of cells with punctate GFP-LC3 fluorescence was calculated by counting the number of the cells with punctate GFP-LC3 fluorescence in GFP-positive cells. A minimum of 150 cells from 3 randomly selected fields was scored.

[4] = system: Doxycycline-inducible PC-12 cell lines transfected with mutant A53T α-synuclein; test: Cell death by flow cytometry (Annexin V / propidium iodide) in PC-12 cells expressing mutant A53T α-synuclein; type: cell-based, rat; settings: 50 μM, 24 h after doxycycline removal
Experimental: Flow cytometry analysis: Doxycycline-inducible PC-12 cell lines transfected with mutant A53T α-synuclein were induced with doxycycline (1 μg/mL) for 24 h and the expression of transgene was then switched off by the removal of doxycycline. Cells were then treated with Onjisaponin B (50 μM) for a further 24 h after doxycycline removal. The control group (Ctrl) contained cells without the addition of doxycycline, while the Dox group contained cells with the removal of doxycycline (1 μg/mL) after 24 h of induction but without treatment of Onjisaponin B. Cell death was then assessed by flow cytometry using Annexin V staining kit and Propidium iodide staining. Data from the bar chart represented the means±S.D. of three independent experiments. **p<0.01; *p<0.05. Flow cytometry was carried out using a FACSCalibur flow cytometer. Data acquisition and analysis were performed with CellQuest.

[5] = system: EGFP-HDQ74 transfected Atg7 wild-type mouse embryonic fibroblasts; test: Mutant huntingtin aggregates and LC3 conversion in Atg7 wild-type MEFs; type: cell-based
Experimental: as §1
Detection of autophagic marker protein LC3 conversion and HTT 74 mutant aggregates. After drug treatments for Atg7 wild type and deficient MEFs, cells were harvested and lysed in RIPA buffer (Cell Signaling Technologies Inc., Beverly, Mass.). The cell lysates were then resolved by SDS-PAGE. […]

[6] = system: PC-12 cells transfected with mutant huntingtin EGFP-HDQ74; test: MTT viability of PC-12 cells expressing mutant huntingtin; type: cell-based, rat; settings: 25 μmol/L, 2 days
Experimental: Cell cytotoxicity assay: Cytotoxicity was assessed using the 344,5-dimethylthiazol-2-yl)-2,5-diphenyltetrazolium bromide assay as described previously. PC-12 cells were transfected with or without mutant huntingtin EGFP-HDQ74 for 24 h. The PC-12 cells were then seeded on 96-well plates with 4000 cells per well and then exposed to the indicated concentrations of Onjisaponin B (25 μmol/L) for 2 days. Subsequently, 10 μL of MTT reagents was added to each well and incubated at 37° C. for 4 hours, followed by the addition of 100 μL solubilization buffer (10% SDS in 0.01 mol/L HCl) and overnight incubation. Absorbance at 585 nm was determined from each well on the next day. The percentage of cell viability was calculated using the following formula: Cell viability (%)=Cells number treated/Cells number DMSO control×100. Data was obtained from three independent experiments.

SMILES: COc1ccc(/C=C/C(=O)O[C@@H]2[C@H](O[C@@H]3O[C@@H](C)[C@H](O)[C@@H](O)[C@H]3O)[C@@H](O[C@@H]3O[C@@H](C)[C@H](O[C@@H]4OC[C@@H](O[C@@H]5O[C@H](CO)[C@H](O)[C@H](O)[C@H]5O)[C@H](O)[C@H]4O)[C@@H](O)[C@H]3O)[C@H](OC(=O)[C@]34CCC(C)(C)C[C@H]3C3=CC[C@@H]5[C@@]6(C)C[C@H](O)[C@H](O[C@@H]7O[C@H](CO)[C@@H](O)[C@H](O)[C@H]7O)[C@@](C)(C(=O)O)[C@@H]6CC[C@@]5(C)[C@]3(CO)CC4)O[C@@H]2C)cc1 [Onjisaponin B]
- Clearance of inclusions formed by EGFP-HDQ74 in PC12 cells [1]: enhanced the clearance of inclusions formed by EGFP-HDQ74
- Oligomerization of α-synuclein (GFP fluorescent signal, flow analysis) [2]: inhibit the oligomerization of α-synuclein
- GFP-LC3 puncta formation in Atg7-knockout cells [3]: not in Atg7-knockout mouse embryonic fibroblasts
- Toxicity in PC-12 cells expressing mutant A53T α-synuclein (cell death, flow cytometry) [4]: reduced toxicity
- Clearance of EGFP-HDQ74 inclusions in autophagy-wild type cells [5]: enhanced the clearance of EGFP-HDQ74 inclusions
- LC3II formation in wild type Atg7 cells transfected with EGFP-HDQ74 ([5]; western blot): LC3II formation in wild type Atg7 cells
- Toxicity in PC-12 cells expressing mutant huntingtin (cell viability, MTT) [6]: reduced toxicity
